Laboratory results published in paper PMC6272684, “Synthesis, Antiproliferative and Antifungal Activities of 1,2,3-Triazole-Substituted Carnosic Acid and Carnosol Derivatives” (Molecules, 2015).
Converted amounts (≈) assume the structure as drawn.

What was measured:
C. albicans ATCC 10231 = assay: Antifungal broth microdilution (CLSI M27-A3), growth inhibition; type: cell-based, Candida albicans
Experimental: (§1) The antifungal properties of compounds 1–24 against two clinical important fungal species, C. albicans ATCC 10231 and C. neoformans ATCC 32264 were investigated. Results were expressed as the percentages of inhibition of each fungus in the range 250–3.9 μg∙mL^−1 by using the standardized microbroth dilution method M-27A3 of Clinical and Laboratory Standards Institute which assures reliable and reproducible results.
(§2) For the antifungal evaluation, standardized strains from the American Type Culture Collection (ATCC), Rockville, MD, USA, were used. The microorganisms included yeasts (Candida albicans ATCC 10231 and Cryptococcus neoformans ATCC 32264). Strains were grown on Sabouraud-chloramphenicol agar slants for 48 h at 30 °C, maintained on slopes of Sabouraud-dextrose agar (SDA, Oxoid), and subcultured every 15 days to prevent pleomorphic transformations. Inocula of cell or spore suspensions were obtained according to reported procedures and adjusted to 1–5 × 10^3 cells/spores with colony forming units (CFU)/mL [29].
(§3) Broth microdilution techniques were performed in 96-well microplates according to the Clinical and Laboratory Standards Institute Reference Method for Broth Dilution Antifungal Susceptibility Testing of Yeasts, Approved Standard M27-A3 [29]. For the assay, compound test wells (CTWs) were prepared with stock solutions of each compound in DMSO (maximum concentration ≤1%), diluted with RPMI-1640, to final concentrations of 250–3.9 μg∙mL^−1. An inoculum suspension (100 μL) was added to each well (final volume in the well = 200 μL). A growth control well (GCW) (containing medium, inoculum, and the same amount of DMSO used in a CTW, but compound-free) and a sterility control well (SCW) (sample, medium, and sterile water instead of inoculum) were included for each fungus tested. Microtiter trays were incubated in a moist, dark chamber at 30 °C for 48 h for both yeasts. Microplates were read in a VERSA Max microplate reader (Molecular Devices, Sunnyvale, CA, USA). Amphotericin B (Sigma-Aldrich) was used as positive control. Tests were performed in triplicate. Reduction of growth for each compound concentration was calculated as follows: % of inhibition = 100 − (OD 405 CTW − OD 405 SCW)/(OD 405 GCW − OD 405 SCW). The means ± SEM were the results of triplicate tests. Three endpoints were defined from the assay explained above and the dose-response curves. Minimum Inhibitory concentration (MIC) resulting in total fungal growth inhibition was named MIC100 while MIC50 was defined as the minimum concentration that inhibits 50% of the fungal growth.

C. neoformans ATCC 32264 = assay: as above; type: cell-based, Cryptococcus neoformans
Experimental: as §1, §2, §3

CC(C)c1cc2c(c(OC(=O)CCCc3cn(CSc4ccccc4)nn3)c1OC(=O)CCCc1cn(CSc3ccccc3)nn1)C13CCCC(C)(C)C1CC2OC3=O (stereo not drawn) [Compound 18, (7β)-11,12-O-(4-(((1-phenylthio)methyl)-1H-1,2,3-triazol-4-yl)-butanoyloxy)-7,20-epoxyabieta-8,11,13-trien-20-one] was tested, and the “Inhibition percentage against C. albicans ATCC 10231” value (C. albicans ATCC 10231; 3.9 μg∙mL^−1, 48 h) was 1.0 ± 0.1%, the “Inhibition percentage against C. albicans ATCC 10231” value (C. albicans ATCC 10231; 7.8 μg∙mL^−1, 48 h) was 2.5 ± 0.2% and the “Inhibition percentage against C. albicans ATCC 10231” value (C. albicans ATCC 10231; 15.6 μg∙mL^−1, 48 h) was 2.8 ± 1.0%. The “Inhibition percentage against C. albicans ATCC 10231” value (C. albicans ATCC 10231; 62.5 μg∙mL^−1, 48 h) was 18.3 ± 0.1%, the “Inhibition percentage against C. albicans ATCC 10231” value (C. albicans ATCC 10231; 125 μg∙mL^−1, 48 h) was 35.4 ± 2.1% and the “Inhibition percentage against C. albicans ATCC 10231” value (C. albicans ATCC 10231; 250 μg∙mL^−1, 48 h) was 57.9 ± 1.0%. The “Inhibition percentage against C. albicans ATCC 10231” value (C. albicans ATCC 10231; 31. μg∙mL^−1, 48 h) was 11.5 ± 1.8%, the “MIC50 (minimum concentration to inhibit 50% of fungal growth), C. albicans” value (C. albicans ATCC 10231; C. albicans ATCC 10231) was 250 µg/mL and the “Inhibition percentage against C. neoformans ATCC 32264” value (C. neoformans ATCC 32264; 3.9 μg∙mL^−1, 48 h) was 0.0%. The “Inhibition percentage against C. neoformans ATCC 32264” value (C. neoformans ATCC 32264; 7.8 μg∙mL^−1, 48 h) was 0.0%, the “Inhibition percentage against C. neoformans ATCC 32264” value (C. neoformans ATCC 32264; 15.6 μg∙mL^−1, 48 h) was 0.0% and the “Inhibition percentage against C. neoformans ATCC 32264” value (C. neoformans ATCC 32264; 31.2 μg∙mL^−1, 48 h) was 0.0%. For the same compound, the “Inhibition percentage against C. neoformans ATCC 32264” value (C. neoformans ATCC 32264; 62.5 μg∙mL^−1, 48 h) was 0.0%, the “Inhibition percentage against C. neoformans ATCC 32264” value (C. neoformans ATCC 32264; 125 μg∙mL^−1, 48 h) was 11.8 ± 0.6% and the “Inhibition percentage against C. neoformans ATCC 32264” value (C. neoformans ATCC 32264; 250 μg∙mL^−1, 48 h) was 44.3 ± 1.9%. The “MIC50 (minimum concentration to inhibit 50% of fungal growth), C. neoformans” value (C. neoformans ATCC 32264; C. neoformans ATCC 32264) was over 250 µg/mL.
C[C@@H]1[C@H](O)[C@@H](C)/C=C/C=C/C=C/C=C/C=C/C=C/C=C/[C@H](O[C@@H]2O[C@H](C)[C@@H](O)[C@H](N)[C@@H]2O)C[C@@H]2O[C@](O)(C[C@@H](O)C[C@@H](O)[C@H](O)CC[C@@H](O)C[C@@H](O)CC(=O)O[C@H]1C)C[C@H](O)[C@H]2C(=O)O [Amph B, amphotericin B, reference compound] showed an inhibition at 3.9 µg/mL (C. albicans ATCC 10231; Candida albicans, ATCC10231, 3.9 μg∙mL^−1, 48 h, read-out: Inhibition percentage against C. albicans ATCC 10231) of 100%, an inhibition at 7.8 µg/mL (C. albicans ATCC 10231; Candida albicans, ATCC10231, 7.8 μg∙mL^−1, 48 h, read-out: Inhibition percentage against C. albicans ATCC 10231) of 100% and an inhibition at 15.6 µg/mL (C. albicans ATCC 10231; Candida albicans, ATCC10231, 15.6 μg∙mL^−1, 48 h, read-out: Inhibition percentage against C. albicans ATCC 10231) of 100%. For the same compound, the inhibition at 62.5 µg/mL (C. albicans ATCC 10231; Candida albicans, ATCC10231, 62.5 μg∙mL^−1, 48 h, read-out: Inhibition percentage against C. albicans ATCC 10231) was 100%, the inhibition at 125 µg/mL (C. albicans ATCC 10231; Candida albicans, ATCC10231, 125 μg∙mL^−1, 48 h, read-out: Inhibition percentage against C. albicans ATCC 10231) was 100% and the inhibition at 250 µg/mL (C. albicans ATCC 10231; Candida albicans, ATCC10231, 250 μg∙mL^−1, 48 h, read-out: Inhibition percentage against C. albicans ATCC 10231) was 100%. It also gave an MIC50 (C. albicans ATCC 10231; Candida albicans, ATCC10231, C. albicans ATCC 10231, read-out: MIC50 (minimum concentration to inhibit 50% of fungal growth), C. albicans) of 0.25 µg/mL (≈ 0.271 µM), an inhibition at 3.9 µg/mL (C. neoformans ATCC 32264; Cryptococcus neoformans, ATCC32264, 3.9 μg∙mL^−1, 48 h, read-out: Inhibition percentage against C. neoformans ATCC 32264) of 100% and an inhibition at 7.8 µg/mL (C. neoformans ATCC 32264; Cryptococcus neoformans, ATCC32264, 7.8 μg∙mL^−1, 48 h, read-out: Inhibition percentage against C. neoformans ATCC 32264) of 100%. The inhibition at 15.6 µg/mL (C. neoformans ATCC 32264; Cryptococcus neoformans, ATCC32264, 15.6 μg∙mL^−1, 48 h, read-out: Inhibition percentage against C. neoformans ATCC 32264) was 100%, the inhibition at 31.2 µg/mL (C. neoformans ATCC 32264; Cryptococcus neoformans, ATCC32264, 31.2 μg∙mL^−1, 48 h, read-out: Inhibition percentage against C. neoformans ATCC 32264) was 100% and the inhibition at 62.5 µg/mL (C. neoformans ATCC 32264; Cryptococcus neoformans, ATCC32264, 62.5 μg∙mL^−1, 48 h, read-out: Inhibition percentage against C. neoformans ATCC 32264) was 100%. For the same compound, the inhibition at 125 µg/mL (C. neoformans ATCC 32264; Cryptococcus neoformans, ATCC32264, 125 μg∙mL^−1, 48 h, read-out: Inhibition percentage against C. neoformans ATCC 32264) was 100%, the inhibition at 250 µg/mL (C. neoformans ATCC 32264; Cryptococcus neoformans, ATCC32264, 250 μg∙mL^−1, 48 h, read-out: Inhibition percentage against C. neoformans ATCC 32264) was 100% and the MIC50 (C. neoformans ATCC 32264; Cryptococcus neoformans, ATCC32264, C. neoformans ATCC 32264, read-out: MIC50 (minimum concentration to inhibit 50% of fungal growth), C. neoformans) was 0.5 µg/mL (≈ 0.541 µM).
